Assay results published in patent publication US20220249438A1, “CARBOCYANINE COMPOUNDS FOR TARGETING MITOCHONDRIA AND ERADICATING CANCER STEM CELLS” (LUNELLA BIOTECH, INC., priority 2019, published 2022).
Read-outs that look alike come from different tables or passages of the source.

Legend:
MCF7 cells [1] = test: Metabolic flux analysis (Seahorse XFe96, OCR/ECAR), MCF7; format: cell-based, Human; details: for ECAR levels / basal and maximal OCR, ATP production: adherent MCF7; for basal and maximal OCR, ATP production: 16 hours, versus vehicle-alone control
Method: (§1) FIGS. 4A-4D show the metabolic flux analysis results in MCF7 cells, FIGS. 5A-5D show the metabolic flux analysis results in MDA-MB-231 cells, and FIGS. 6A-6D show the metabolic flux analysis results in MDA-MB-468 cells.
(§2) In addition to metabolic flux analysis, glycolytic function was analyzed at different concentrations of MTDR. This included extracellular acidification rate (ECAR) measurements, glycolysis, glycolytic capacity, and glycolytic reserve. FIGS. 7A-7D show the results of glycolytic function in MCF7 cells, including ECAR, glycolysis, glycolytic capacity, and glycolytic reserve, respectively. FIGS. 8A-8D show the results of glycolytic function in MDA-MB-231 cells, including ECAR, glycolysis, glycolytic capacity, and glycolytic reserve, respectively. FIGS. 9A-9D show the results of glycolytic function in MDA-MB-468 cells, including ECAR, glycolysis, glycolytic capacity, and glycolytic reserve, respectively.
To examine the effects of HITC and DDI on mitochondrial respiration and aerobic glycolysis, adherent MCF7 were treated with each compound, and then OCR and ECAR were measured. […] After treatment, the mitochondrial oxygen consumption rate (OCR) was measured using the Seahorse XFe96 analyzer. Data is expressed as percentage of OCR versus control. All data was normalized for cell number. Statistical analysis was conducted using one-way ANOVA.
(§3) Metabolic Flux Analysis: Extracellular acidification rates and oxygen consumption rates were analyzed using the Seahorse XFe96 analyzer (Agilent/Seahorse Bioscience, USA). Cells were maintained in DMEM supplemented with 10% FBS (fetal bovine serum), 2 mM GlutaMAX, and 1% Pen-Strep. Forty-thousand breast cancer cells were seeded per well, into XFe96-well cell culture plates, and incubated at 37° C. in a 5% CO2 humidified atmosphere. After 24-48 hours, MCF7 cells were washed in pre-warmed XF assay media, as previously described. ECAR and OCR measurements were normalized for cell protein content, by the SRB colorimetric assay. Data sets were analyzed using XFe96 software and Excel software.

MDA-MB-231 cells [2] = details: MDA-MB-231 mammosphere formation
Text: (§4) In order to assess the effects of MTDR on CSC propagation, the mammosphere assay was used as a functional readout of “stemness” and 3D anchorage-independent growth. As CSCs are highly-resistant to many types of cell stress, they can undergo anchorage-independent propagation, under low-attachment conditions. […] These “mammospheres” are highly enriched in CSCs and progenitor-like cells, and highly resemble the morula stage of embryonic development, a solid ball of cells without a hollow lumen. Under these culture conditions of non-attachment, the majority of epithelioid cancer cells die, via an unusual form of apoptosis, known as anoikis.
(§5) As a consequence, the growth of 3D spheroids provides functional culture conditions to select for a population of epithelioid CSCs, with EMT properties. As such this provides an ideal assay for identifying small molecules that can target the anchorage-independent growth of CSCs.
(§6) 3D-Mammosphere Formation Assay: A single cell suspension was prepared using enzymatic (1× Trypsin-EDTA, Sigma Aldrich, cat. #T3924), and manual disaggregation (25 gauge needle). Five thousand cells were plated with in mammosphere medium (DMEM-F12/B27/20 ng/ml EGF/PenStrep), under non-adherent conditions, in six wells plates coated with 2-hydroxyethylmethacrylate (poly-HEMA, Sigma, cat. #P3932). […]

MDA-MB-468 cells [3] = details: read-out: IC-50, 3D sphere formation
Text: as §4, §5, §6

MCF7 cells [4] = test: 3D-mammosphere formation assay, MCF7; format: cell-based, Human
Text: as §4, §5, §6

MDA-MB-231 cells [5] = details: read-out: IC-50, cell viability; MDA-MB-231 monolayer; Hoechst 33342; 1 nM to 1 μM; FIG. 10
Method: (§7) A Hoechst-based viability assay was used to characterize the selectivity of MTDR for the preferential targeting of cancer cells. Briefly, MCF7, MDA-MB-231 and MDA-MB-468 cell monolayers were treated with MTDR, at concentrations ranging from 1 nM to 1 μM, for a period of one day. Cell viability was assessed using Hoechst 33342, a nuclear dye that stains DNA in live cells. The viability of normal human fibroblasts (hTERT-BJ1) treated with MTDR was also assessed in parallel. Quantitation was performed with a plate-reader.
(§8) MCF7, MDA-MB-231 and MDA-MB-468 cell monolayers were treated with MTDR for a period of 72 hours, and viability was assessed using Hoechst 33342, a nuclear dye that stains DNA in live cells. Effects of MTDR on the viability in normal human fibroblasts (hTERT-BJ1) were assessed in parallel.

[6] = tested on: normal human fibroblasts (hTERT-BJ1); details: for IC50: hTERT-BJ1, Hoechst 33342
Method: as §7, §8

MCF7 cells [7] = details: read-out: IC-50, cell viability; MCF7 monolayer; Hoechst 33342; 1 nM to 1 μM; FIG. 10
Method: as §7, §8

MDA-MB-468 cells [8] = details: read-out: IC-50, cell viability; MDA-MB-468 monolayer; Hoechst 33342; 1 nM to 1 μM; FIG. 10
Method: as §7, §8

MDA-MB-231 cells [9] = details: MDA-MB-231 monolayer
Method: as §1, §2, §3

MDA-MB-468 cells [10] = details: MDA-MB-468 monolayer
Method: as §1, §2, §3

[11] = in vivo; cited from earlier work

## CCN1/C(=C/C=C/C=C/c2ccc3ccccc3[n+]2CC)C=Cc2ccccc21 [DDI]
MCF7 cells [1]
  ECAR levels: did not affect
  basal and maximal OCR, ATP production: did not affect

## CN1C(=CC=CC=CC2=[N+](Cc3ccc(CCl)cc3)c3ccccc3C2(C)C)C(C)(C)c2ccccc21.[Cl-] [MTDR, 1-{4-[(chloromethyl)phenyl]methyl}-3,3-dimethyl-2-[5-(1,3,3-trimethyl-1,3-dihydro-2H-indol-2-ylidene)penta-1,3-dien-1-yl]-3H-indolium chloride]
MDA-MB-231 cells [2]
  concentrations inhibiting anchorage-independent growth: above 100 nM
MDA-MB-468 cells [3]
  IC50: ~0.05 µM
MCF7 cells [4]; MCF7, MTDR 1 nM to 1,000 nM, 5 days, read-out: IC-50, 3D anchorage-independent growth (mammosphere formation)
  IC50: < 0.1 µM
MCF7 cells [1]; MCF7 monolayer, OCR
  concentration from which near complete inhibition of mitochondrial function and ATP production: ≥ 500 nM
MCF7 cells [1]; MCF7 monolayer, up to 1 μM
  effect on glycolysis (ECAR): no effect on glycolysis
MDA-MB-231 cells [5]
  IC50: 0.399 µM
[6]; read-out: IC-50, cell viability, 1 nM to 1 μM, FIG. 10
  IC50: 0.468 µM
[6]; read-out: IC-50, normal cell viability, 72 hours
  IC50: 1 µM
[6]; viability, 72 hours
  potency and selectivity for breast cancer cells relative to normal fibroblasts: 10 times
MCF7 cells [7]
  IC50: 0.0907 µM
MDA-MB-468 cells [8]
  IC50: 0.432 µM
MDA-MB-231 cells [9]; OCR
  concentration from which near complete inhibition of mitochondrial function and ATP production: ≥ 500 nM
MDA-MB-231 cells [9]; no significant effect up to 100 nM
  concentration from which mild-to-moderate inhibition of glycolysis: ≥ 500 nM
MDA-MB-468 cells [10]; OCR
  concentration from which near complete inhibition of mitochondrial function and ATP production: ≥ 500 nM
MDA-MB-468 cells [10]; up to 1 μM
  effect on glycolysis (ECAR): no effect on glycolysis

## CN1\C(=C/C=C/C=C/C=C/C2=[N+](C)c3ccccc3C2(C)C)C(C)(C)c2ccccc21 [HITC]
MCF7 cells [1]
  ECAR levels: increased significantly, at 500 and 1000 nM
  basal and maximal OCR, ATP production: significantly inhibited

## CCCN1/C(=C/C=C2\CCCC(/C=C/C3=[N+](CCC)c4ccccc4C3(C)C)=C2Cl)C(C)(C)c2ccccc21 [IR-780]
MCF7 cells [4]; non-adherent MCF7, 1, 50, 100, 500, 1000 nM, five days
  concentrations with significant inhibition of CSC propagation (3D-mammosphere formation): not effective
[11]
  half-life in serum: minutes to hour
